# Publication PMC8145596, “Novel Chemically Modified Curcumin (CMC) Derivatives Inhibit Tyrosinase Activity and Melanin Synthesis in B16F10 Mouse Melanoma Cells” (Biomolecules, 2021)
# “Also recorded” adds a separate entry of the source. Read-outs that look alike come from different tables or passages of the source.
# Assays:
# [1] = target: T1, α-glucosidase enzyme from Baker’s yeast (Saccharomyces cerevisiae, UniProt P53341); experiment: Cell-free α-glucosidase assay; assay type: biochemical
# T1 construct: purchased Sigma-Aldrich (St. Louis, MO, USA)
# T1 sequence (P53341 whole entry): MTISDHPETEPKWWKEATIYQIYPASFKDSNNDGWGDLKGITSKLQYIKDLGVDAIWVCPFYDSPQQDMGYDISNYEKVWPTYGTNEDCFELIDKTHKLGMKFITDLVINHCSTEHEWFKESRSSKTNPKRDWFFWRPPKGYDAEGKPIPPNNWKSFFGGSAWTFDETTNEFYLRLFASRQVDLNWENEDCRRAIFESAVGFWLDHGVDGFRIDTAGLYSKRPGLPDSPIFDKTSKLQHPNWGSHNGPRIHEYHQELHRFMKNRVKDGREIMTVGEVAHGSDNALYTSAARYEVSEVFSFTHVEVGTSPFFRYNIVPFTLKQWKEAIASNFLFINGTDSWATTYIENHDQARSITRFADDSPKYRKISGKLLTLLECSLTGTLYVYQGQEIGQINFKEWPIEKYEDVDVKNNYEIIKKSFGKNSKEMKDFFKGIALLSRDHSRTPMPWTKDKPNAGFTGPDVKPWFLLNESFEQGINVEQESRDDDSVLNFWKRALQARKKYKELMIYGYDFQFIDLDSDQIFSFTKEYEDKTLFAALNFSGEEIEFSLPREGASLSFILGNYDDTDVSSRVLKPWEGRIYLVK
# Protocol: The effects of compounds on α-glucosidase were assayed based on the method decribed previously with some modifications. 80 µL of samples (prepared in 0.05 M phosphate buffer, pH 6.8) were aliquoted in a 96-well microplate followed by the addition of 100 µL of 2.4 mM pNG substrate solution. A volume of 20 µL of 0.45 units of α-glucosidase enzyme from Baker’s yeast prepared in 0.05 M buffer was added to start the reaction; the rate of the formation of p-nitrophenol was monitored at 405 nm for 15 min at 37 °C in a microplate reader in kinetic mode. The enzyme activity (%) was calculated as: (rate of sample reaction/rate of control reaction) × 100%.
# [2] = tested on: B16F10 mouse melanoma cells; experiment: MTS cell viability assay; assay type: cell-based; settings: for cytotoxicity / cell viability: 48 h; for cytotoxicity: B16F10, full concentration range; for cell viability: B16F10
# Protocol: B16F10 mouse melanoma cells (CRL-6475™) were obtained from American Type Culture Collection (ATCC, Manassas, VA, USA) and cultured using Dulbecco’s Modified Eagle Medium (DMEM) supplemented with 10% heat-inactivated fetal bovine serum (HI-FBS) and 1% antibiotics (penicillin-streptomycin) in a humidified incubator with 95% air—5% CO2 at 37 °C. In order to test the four CMCs (CMC2.14, CMC2.24, CMC2.5 and CMC2.23) to that of PC, for their effects on melanin content, we first screened them for cytotoxicity using a tetrazolium assay with MTS (Promega CellTiter Aqueous One). Briefly, B16F10 cells were seeded at 4 × 10^3 cells/well in a 96-well plate for 24 h. The compounds were diluted using culture medium to yield a final DMSO in all groups of 0.16% and added to the cell monolayers in wells after 24 h. Control was treated with 0.16% DMSO. At the end of 48 h, the medium was aspirated and replaced by 100 μL of fresh medium. 20 μL of MTS reagent was then added, and the plate was incubated at 37 °C for 40 min. At this point, the absorbance of 100 μL aliquots was read at 490 nm using a microplate reader. Cell viability was calculated from the absorbance values relative to control groups and expressed in %.
# [3] = target: mushroom tyrosinase (Agaricus bisporus, UniProt C7FF04); experiment: Diphenolase activity assay of mushroom tyrosinase (L-DOPA substrate); assay type: biochemical; settings: for mechanism of inhibition of diphenolase activity: L-B and Dixon plots, nonlinear curve fitting; for diphenolase inhibitory potency: compared with CMC2.24; for Ki: read-out: apparent Ki, diphenolase (L-DOPA)
# Sequence of mushroom tyrosinase (C7FF04 1-392): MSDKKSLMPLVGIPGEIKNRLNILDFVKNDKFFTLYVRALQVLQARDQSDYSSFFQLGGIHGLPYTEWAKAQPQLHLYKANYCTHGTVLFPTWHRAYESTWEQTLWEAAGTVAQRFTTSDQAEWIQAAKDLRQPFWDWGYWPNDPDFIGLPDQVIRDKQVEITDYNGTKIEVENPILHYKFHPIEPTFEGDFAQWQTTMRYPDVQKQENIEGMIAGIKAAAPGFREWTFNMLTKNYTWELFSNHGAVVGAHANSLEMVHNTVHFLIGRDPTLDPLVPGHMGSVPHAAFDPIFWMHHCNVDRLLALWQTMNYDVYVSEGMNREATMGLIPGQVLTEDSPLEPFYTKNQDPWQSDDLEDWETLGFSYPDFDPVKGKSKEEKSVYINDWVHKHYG
# Protocol: The direct effects of the compounds on the diphenolase activity of tyrosinase were tested using mushroom tyrosinase with a fixed concentration of L-DOPA as the substrate. Briefly, 80 µL of each compound prepared at different concentrations in 50 mM sodium phosphate buffer (pH 6.8) was added to wells of a 96-well microplate, followed by 100 µL of freshly prepared substrate solution (3 mM L-DOPA in buffer). The reaction was initiated by adding 20 µL of mushroom tyrosinase (final concentration of enzyme in wells was 3.5 µg/mL). The production of Dopachrome was monitored by measuring the absorbance at 475 nm every 30 s for a period of 30 min at 30 °C, using a microplate reader in the kinetic mode. The slopes of the plots of absorbance vs. time were calculated for comparison of enzyme activity in the presence of each of the inhibitors to that of the inhibitor-free control.
# In order to study the mechanism of inhibition of tyrosinase activity by the compounds as a function of substrate concentration, we conducted a kinetic study of monophenolase and diphenolase activities at multiple concentrations of substrates. For the monophenolase activity assay, the final concentration of enzyme was 12.5 µg/mL and the final substrate concentrations were 0.125, 0.25, 0.5 and 1 mM, while for diphenolase activity assay, the final concentration of enzyme was 3.5 µg/mL and the final substrate concentrations ranged from 0.1–3 mM. The slopes from the linear range of the progress curves of absorbance at 475 nm vs. time were recorded as apparent velocities and the reciprocal values, 1/v, were plotted as functions of the reciprocal values of the substrate concentrations at different fixed inhibitor concentrations according to the method of Lineweaver and Burk (L-B). Dixon plots of the reciprocal velocity values, (1/v), as functions of the inhibitor concentrations at different fixed substrate concentrations were also constructed to investigate further the apparent mode of inhibition by the compounds.
# We have also analyzed the inhibition data using nonlinear curve fitting algorithms which are more robust than the linearized L-B and Dixon plotting methods that can weigh the data from evenly spaced concentrations disproportionately. The inhibition constants were calculated by non-linear least squares curve fitting using a modified Levenberg-Marquardt algorithm and data was fitted to models of pure competitive, noncompetitive, and uncompetitive inhibition using Enzfitter software (version 2.0, Biosoft, Cambridge, UK). This analysis was undertaken to assess the apparent potency of compounds, PC, CMC2.24, and CMC2.23 for each putative mode of inhibition.
# [4] = tested on: tyrosinase activity in B16F10 cells; experiment: Intracellular tyrosinase activity in B16F10 cell lysates; assay type: cell-based, mouse; settings: 48 h
# Protocol: B16F10 cells (4 × 10^4 cells/well in 1 mL medium) were cultured in 24-well plates for 24 h. After that, the medium was replaced by fresh medium containing the compounds, and further incubated for 48 h. At the end of treatments, the cells were harvested, and cell pellets were washed in PBS and lysed and then centrifuged. Lysates (50 µL) were then aliquoted in a 96-well plate and 150 µL of 3 mM L-DOPA was added. The absorbance was measured at 475 nm every 30 s for 40 min at 30 °C using a microplate reader in the kinetic mode. The tyrosinase activity was calculated from the slope of the linear range of the velocity in the presence of each test compound and normalized to the total protein content and reported as % of control.
# [5] = tested on: α-glucosidase activity in B16F10 cells; experiment: Intracellular α-glucosidase assay; assay type: cell-based, mouse; settings: 48 h; for inhibition at 5 µM / inhibition at 10 µM / inhibition at 20 µM / inhibition at 25 µM: Mus musculus, B16-F10, read-out: inhibition of cellular α-glucosidase activity
# Protocol: B16F10 cells (2.2 × 10^5) were grown in 6-well plates and compounds were added next day for 48 h. Cells were harvested, lysed and 50 µL of lysates were aliquoted in a 96-well plate with 100 µL of 2 mM pNG substrate; rate of the formation of the yellow-colored reaction product, p-nitrophenol, was monitored at 405 nm for 30 min at 37 °C in a microplate reader (kinetic mode) and values were normalized to total protein contents. The cellular α-glucosidase activity was calculated as (rate of sample reaction/rate of control reaction) × 100 and was expressed as percentage of control.
Compound,inhibition at 5 µM ([1]; 5 µM) [%],inhibition at 10 µM ([1]; 10 µM) [%],inhibition at 20 µM [1] [%],inhibition at 25 µM [1] [%],cytotoxicity [2],mechanism of inhibition of diphenolase activity [3],diphenolase inhibitory potency [3],"Vmax, diphenolase (L-DOPA) ([3]; competitive model fit) [mM/min]","Vmax, diphenolase (L-DOPA) ([3]; noncompetitive model fit) [mM/min]","Vmax, diphenolase (L-DOPA) ([3]; uncompetitive model fit) [mM/min]",suppression of intracellular tyrosinase activity ([4]; 10 µM) [%],suppression of intracellular tyrosinase activity ([4]; 20 µM) [%],suppression of intracellular tyrosinase activity ([4]; 25 µM) [%],inhibition at 5 µM ([5]; 5 µM) [%],inhibition at 10 µM ([5]; 10 µM) [%],inhibition at 20 µM [5] [%],suppression of intracellular tyrosinase activity ([4]; 5 µM) [%],inhibition at 25 µM ([5]; 25 µM) [%],also measured
COc1cc(/C=C/C(=O)/C(C(=O)Nc2ccccc2)=C(O)/C=C/c2ccc(O)c(OC)c2)ccc1O [CMC2.23],15.5,16.5,19.8,17.2,nontoxic over the full concentration range,"mixed mechanism of inhibition; also recorded: mixed, but predominantly competitive, mode of inhibition",somewhat weaker inhibitory potency,38.0,39.05,39.0,30.04,44.64,51.47,12.4,14.9,11.8,–,–,inhibition of cellular α-glucosidase activity ([5]; 25 µM): no change
O=C(/C=C/c1ccc(O)cc1)/C(C(=O)Nc1ccccc1)=C(O)/C=C/c1ccc(O)cc1 [CMC2.24],27.1,25.6,35.3,41.3,nontoxic over the full concentration range,mixed mode of inhibition with a predominantly competitive mechanism,–,36.0,43.69,41.99,53.76,64.25,68.81,10.2,12.6,20.3,38.6,16.4,inhibition at 20 µM ([3]; 20 μM compound): 35.4%; inhibition at 25 µM ([3]; 25 μM compound): 38.2%
"1,7-bis(4-hydroxy-3-methoxyphenyl)-1,6-heptadien-3,5-dione [PC, reference compound]",–,–,–,–,–,not a pure competitive inhibitor; also recorded: mixed inhibitor,–,44.67,48.28,47.52,47.85,–,–,–,–,–,–,–,"inhibition of cell-free α-glucosidase activity ([1]; 5 µM): 20.13%; inhibition of cell-free α-glucosidase activity ([1]; 10 µM): 22.13%; cell viability ([2]; 20 µM): 29.47%; cell viability ([2]; 25 µM): 30.83%; concentrations with significant cytotoxicity ([2]; B16F10, 48 h): > 10 µM; inhibition of diphenolase activity ([3]; 5 μM compound): 14.47%; inhibition of diphenolase activity ([3]; 10 μM compound): 12.41%; inhibition of diphenolase activity ([3]; 20 μM compound): 14.19%; inhibition of diphenolase activity ([3]; 25 μM compound): 16.39%; Ki ([3]; fit to pure competitive inhibition): 45.1 µM; Ki ([3]; fit to pure noncompetitive inhibition): 164 µM; Ki ([3]; fit to pure uncompetitive inhibition): 129 µM; IC50 ([3]; fixed substrate concentration (L-DOPA), read-out: IC50 for Diphenolase inhibition): 299 ± 35.6 µM; inhibition of cellular α-glucosidase activity ([5]; 5 µM): 13.71%; inhibition of cellular α-glucosidase activity ([5]; 10 µM): 10.47%"
COC(=O)/C(C(=O)/C=C/c1ccc(O)cc1)=C(O)\C=C\c1ccc(O)cc1 [CMC2.14],–,14.3,–,–,–,–,somewhat weaker inhibitory potency,–,–,–,50.31,–,–,–,16.5,–,47.96,–,–
"COC(=O)/C(C(=O)/C=C/c1ccc(O)c(OC)c1)=C(O)\C=C\c1ccc(O)c(OC)c1 [CMC2.5, 4-methoxycarbonyl curcumin]",–,–,14,–,nontoxic over the full concentration range,–,somewhat weaker inhibitory potency,–,–,–,19.98,23.16,26,–,12.4,25.6,–,27.4,cell-free α-glucosidase activity ([1]; concentrations other than 20 µM): no change was observed at any other concentration
